Assays:
[1] = Antiproliferative activity against […] assessed as reduction in cell growth incubated for 48 hrs by MTT assay; type: functional, cell-based; settings: RN 22, 48 h
[2] = biological target: T1, Histone-lysine N-methyltransferase NSD2 (Homo sapiens, UniProt O96028); assay: Inhibition of NSD2 SET domain (unknown origin) extracted from Escherichia coli BL21
T1 sequence (O96028 whole entry): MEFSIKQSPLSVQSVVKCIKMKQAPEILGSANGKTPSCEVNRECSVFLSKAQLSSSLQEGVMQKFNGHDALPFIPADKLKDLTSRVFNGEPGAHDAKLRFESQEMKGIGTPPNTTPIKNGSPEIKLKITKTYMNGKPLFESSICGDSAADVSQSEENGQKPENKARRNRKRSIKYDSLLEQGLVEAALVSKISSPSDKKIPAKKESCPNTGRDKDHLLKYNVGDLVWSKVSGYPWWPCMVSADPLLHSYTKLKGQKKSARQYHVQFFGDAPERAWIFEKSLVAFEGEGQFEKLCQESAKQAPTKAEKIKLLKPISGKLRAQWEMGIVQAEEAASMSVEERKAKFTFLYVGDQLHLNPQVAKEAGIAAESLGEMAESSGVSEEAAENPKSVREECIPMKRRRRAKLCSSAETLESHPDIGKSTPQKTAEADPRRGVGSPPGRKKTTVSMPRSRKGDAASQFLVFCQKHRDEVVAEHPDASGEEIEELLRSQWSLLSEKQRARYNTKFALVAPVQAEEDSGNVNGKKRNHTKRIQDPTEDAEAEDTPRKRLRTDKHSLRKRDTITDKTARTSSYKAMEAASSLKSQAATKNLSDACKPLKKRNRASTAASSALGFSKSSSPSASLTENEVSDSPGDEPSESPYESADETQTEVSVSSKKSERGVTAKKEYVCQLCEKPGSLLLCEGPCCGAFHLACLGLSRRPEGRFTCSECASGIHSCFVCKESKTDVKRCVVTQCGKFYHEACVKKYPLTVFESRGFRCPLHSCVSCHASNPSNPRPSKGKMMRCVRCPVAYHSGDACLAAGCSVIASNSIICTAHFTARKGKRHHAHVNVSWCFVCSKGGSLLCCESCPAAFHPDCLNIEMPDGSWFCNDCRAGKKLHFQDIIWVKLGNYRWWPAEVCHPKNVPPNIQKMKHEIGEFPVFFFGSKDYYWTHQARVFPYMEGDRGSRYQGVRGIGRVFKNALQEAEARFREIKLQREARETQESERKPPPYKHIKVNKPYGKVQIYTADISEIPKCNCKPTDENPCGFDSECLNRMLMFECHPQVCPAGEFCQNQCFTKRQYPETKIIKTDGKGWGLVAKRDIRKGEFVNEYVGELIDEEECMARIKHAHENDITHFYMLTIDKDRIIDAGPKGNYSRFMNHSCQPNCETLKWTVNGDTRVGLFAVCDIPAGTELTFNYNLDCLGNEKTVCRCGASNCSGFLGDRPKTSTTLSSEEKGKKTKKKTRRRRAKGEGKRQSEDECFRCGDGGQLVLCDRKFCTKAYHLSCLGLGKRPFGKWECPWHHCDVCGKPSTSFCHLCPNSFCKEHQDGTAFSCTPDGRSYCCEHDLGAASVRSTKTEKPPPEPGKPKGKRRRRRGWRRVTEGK

[3] = biological target: T1, Histone-lysine N-methyltransferase NSD2; assay: Inhibition of MMSET (953 to 1240 residues) (unknown origin) by Alpha Screen assay
MV4-11 = assay: Growth inhibition of human MV4-11 cells after 7 days by WST-8 assay; type: functional; settings: MV4-11, 168 h, time 7 day
MOLM-13 = assay: Growth inhibition of human MOLM-13 cells; type: functional
KOPN-8 = assay: Growth inhibition of human KOPN-8 cells; type: functional
[4] = biological target: Protein cereblon/Histone-lysine N-methyltransferase NSD2 (Homo sapiens, UniProt O96028+Q96SW2); assay: PROTAC activity at CRBN/NSD2 in human VCaP cells assessed as induction of NSD2 degradation at 2 uM incubated for 24 hrs by immunoblot analysis; type: cell-based
Sequence of Protein cereblon/Histone-lysine N-methyltransferase NSD2 (Q96SW2 whole entry, one chain of several): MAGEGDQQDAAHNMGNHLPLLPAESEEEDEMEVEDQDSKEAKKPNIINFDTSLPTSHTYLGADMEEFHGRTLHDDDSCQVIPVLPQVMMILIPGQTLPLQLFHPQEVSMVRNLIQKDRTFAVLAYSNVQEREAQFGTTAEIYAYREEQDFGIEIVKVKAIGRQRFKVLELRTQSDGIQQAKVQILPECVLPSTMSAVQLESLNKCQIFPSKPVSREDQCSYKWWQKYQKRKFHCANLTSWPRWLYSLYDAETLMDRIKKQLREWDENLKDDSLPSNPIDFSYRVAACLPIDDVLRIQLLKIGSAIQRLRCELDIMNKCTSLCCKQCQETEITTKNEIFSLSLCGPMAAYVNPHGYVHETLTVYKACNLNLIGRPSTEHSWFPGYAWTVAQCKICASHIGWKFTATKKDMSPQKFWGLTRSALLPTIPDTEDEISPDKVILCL

[5] = biological target: von Hippel-Lindau disease tumor suppressor/Histone-lysine N-methyltransferase NSD3 (Homo sapiens, UniProt Q9BZ95+P40337); assay: PROTAC activity at VHL/NSD3 […] domain in human MOLM-13 cells assessed as […] measured after 48 hrs by immunoblotting analysis; type: cell-based
Sequence of von Hippel-Lindau disease tumor suppressor/Histone-lysine N-methyltransferase NSD3 (Q9BZ95 whole entry): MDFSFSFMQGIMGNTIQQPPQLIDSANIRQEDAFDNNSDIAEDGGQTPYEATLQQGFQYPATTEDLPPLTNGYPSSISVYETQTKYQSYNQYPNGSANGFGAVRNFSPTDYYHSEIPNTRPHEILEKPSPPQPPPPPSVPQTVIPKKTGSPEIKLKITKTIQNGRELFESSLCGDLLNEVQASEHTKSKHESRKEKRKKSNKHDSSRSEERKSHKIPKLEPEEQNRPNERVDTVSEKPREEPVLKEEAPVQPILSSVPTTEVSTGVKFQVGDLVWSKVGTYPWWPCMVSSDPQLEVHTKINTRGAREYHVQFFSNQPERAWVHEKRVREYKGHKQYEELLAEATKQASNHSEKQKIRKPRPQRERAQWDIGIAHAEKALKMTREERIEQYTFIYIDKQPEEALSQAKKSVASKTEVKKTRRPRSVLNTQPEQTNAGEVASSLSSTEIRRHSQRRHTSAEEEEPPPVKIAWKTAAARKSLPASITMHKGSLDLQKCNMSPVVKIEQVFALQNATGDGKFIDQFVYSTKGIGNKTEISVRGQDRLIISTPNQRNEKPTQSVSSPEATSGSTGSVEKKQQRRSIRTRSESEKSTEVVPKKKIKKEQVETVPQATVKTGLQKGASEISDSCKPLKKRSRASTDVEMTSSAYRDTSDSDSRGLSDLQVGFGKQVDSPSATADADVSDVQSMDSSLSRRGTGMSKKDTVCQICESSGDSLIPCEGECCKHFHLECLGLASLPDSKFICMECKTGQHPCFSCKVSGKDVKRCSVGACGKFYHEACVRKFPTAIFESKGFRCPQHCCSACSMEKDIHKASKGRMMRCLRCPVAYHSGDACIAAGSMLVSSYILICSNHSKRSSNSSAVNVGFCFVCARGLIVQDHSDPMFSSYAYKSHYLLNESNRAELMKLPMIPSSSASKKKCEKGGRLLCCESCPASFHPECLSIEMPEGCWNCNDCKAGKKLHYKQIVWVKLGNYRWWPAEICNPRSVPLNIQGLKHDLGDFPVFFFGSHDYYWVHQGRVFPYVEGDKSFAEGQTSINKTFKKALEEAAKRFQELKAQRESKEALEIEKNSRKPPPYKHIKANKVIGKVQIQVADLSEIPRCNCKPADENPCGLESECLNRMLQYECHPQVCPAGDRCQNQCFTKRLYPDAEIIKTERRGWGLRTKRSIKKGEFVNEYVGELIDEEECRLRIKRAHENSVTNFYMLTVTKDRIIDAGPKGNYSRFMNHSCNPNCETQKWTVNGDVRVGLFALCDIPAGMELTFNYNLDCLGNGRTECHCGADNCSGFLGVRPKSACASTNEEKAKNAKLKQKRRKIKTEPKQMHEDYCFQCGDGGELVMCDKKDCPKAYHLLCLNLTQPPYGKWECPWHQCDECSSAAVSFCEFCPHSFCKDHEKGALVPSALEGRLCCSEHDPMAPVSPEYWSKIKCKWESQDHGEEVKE
Sequence of von Hippel-Lindau disease tumor suppressor/Histone-lysine N-methyltransferase NSD3 (P40337 whole entry): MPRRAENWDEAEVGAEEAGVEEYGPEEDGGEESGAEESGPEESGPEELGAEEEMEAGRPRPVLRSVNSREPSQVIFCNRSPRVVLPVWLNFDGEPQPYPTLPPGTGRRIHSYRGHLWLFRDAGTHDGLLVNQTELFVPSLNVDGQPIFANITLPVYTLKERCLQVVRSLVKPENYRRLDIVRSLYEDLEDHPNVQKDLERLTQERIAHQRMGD

EOL1 = assay: Antiproliferative activity against human EOL1 cells assessed as cell growth inhibition; type: functional, cell-based
[6] = biological target: T1, Histone-lysine N-methyltransferase NSD2; assay: Binding affinity to NSD2 (unknown origin) assessed as dissociation constant by SPR analysis
[7] = Oral bioavailability in Sprague-Dawley rat by LC-MS/MS analysis; type: ADME, organism-based; settings: in vivo
[8] = Oral bioavailability in CD-1 mouse by LC-MS/MS analysis; type: ADME, organism-based; settings: in vivo

Compound: Cc1cc(CN)cc(C)c1-c1ncn(C)c1-c1ccnc2cc(F)ccc12
- IC50 [1]: 13 µM

Compound: O=C1O[C@@H](C(=O)N2CCN(Cc3nc4sc5c(c4c(=O)[nH]3)CCCC5)CC2)Cc2ccccc21
- IC50 [2]: 132 nM

Compound: CC(=O)N(C)C1CCN(c2cc(F)cc(NC(=O)c3cc4c(F)ccc(C)c4[nH]3)c2)C1 (centres undefined)
- IC50 [3]: 7 nM

Compound: Cc1ccc(F)c2cc(C(=O)Nc3cccc(N4CCC(N(C)C)CC4)c3)[nH]c12
- IC50 [3]: 10 nM

Compound: NC(=S)c1cccc(-c2cn(C3CCN(S(=O)(=O)C(F)(F)F)CC3)c3cc(CNC(=O)C4CNC4)ccc23)c1
- GI50 (MV4-11): 5 µM
- GI50 (MOLM-13): 5 µM
- GI50 (KOPN-8): 5 µM

Compound: Cc1cccnc1C(NC(=O)c1cc2c(F)ccc(C)c2[nH]1)C1CC1 (centres undefined)
- IC50 [3]: 600 nM

Compound: CN1CC(C(=O)NCc2ccc3c(-c4cccc(C(N)=S)c4)cn(C4CCN(S(=O)(=O)C(F)(F)F)CC4)c3c2)C1
- GI50 (MV4-11): 1.8 µM
- GI50 (MOLM-13): 1.8 µM
- GI50 (KOPN-8): 1.8 µM

Compound: Cc1cccnc1C(NC(=O)c1cc2cccc(C)c2[nH]1)C1CC1 (centres undefined)
- IC50 [3]: 3080 nM

Compound: O=C(CNc1cccc2c1C(=O)N(C1CCC(=O)NC1=O)C2=O)NCCCOc1ccc(NC(=O)c2ccc(CN(C(=O)c3ccc4c(c3)OCC(=O)N4)C3CC3)cc2)nc1 (centres undefined)
- DC50 [4]: 5200 nM

Compound: Cc1cc(CNCCCC(=O)NCCCCCCCCC(=O)N[C@H](C(=O)N2C[C@H](O)C[C@H]2C(=O)N[C@@H](C)c2ccc(-c3scnc3C)cc2)C(C)(C)C)cc(C)c1-c1ncn(C)c1-c1ccnc2cc(F)ccc12
- DC50 [5]: 4.9 µM
- IC50 (EOL1): 2300 nM

Compound: NCCCCCCNC(=O)c1ccc(NC(=O)c2ccc(CN(C(=O)c3ccc4c(c3)OCC(=O)N4)C3CC3)cc2)cc1
- Kd [6]: 24 nM
- DC50 [4]: 350 nM

Compound: Cc1cccc2cc(C(=O)Nc3ccccc3)[nH]c12
- IC50 [3]: 4240 nM

Compound: Cc1cccc2cc(C(=O)NC3CCC(N)CC3)[nH]c12 (centres undefined)
- IC50 [3]: 166000 nM

Compound: CCC(C)N[C@@H](CC[C@H](N)C(=O)O)C[C@H]1O[C@@H](n2cnc3c(N)ncnc32)[C@H](O)[C@@H]1O (some centres undefined)
- IC50 [3]: 1800 nM

Compound: CC(=O)N1CCN([C@H]2CCC[C@@H](NC(=O)c3cc4c(F)ccc(C)c4[nH]3)C2)CC1 [EZM-0414]
- bioavailability [7]: 97%
- IC50 [3]: 18 nM
- bioavailability [8]: > 100%
